Here are results for 12 compounds from PubChem BioAssay (NCI).

Some test systems named below: SK-MEL-5 melanoma; MDA-MB-231 breast; SNB-19 CNS; T-47D breast; NCI-H23 lung; NCI-H522 lung; HS 578T breast; M14 melanoma; HCC-2998 colon; A549 NSCLC; SK-OV-3 ovarian; UACC-62 melanoma; K-562 leukemia; DU-145 prostate; MOLT-4 leukemia; HOP-92 NSCLC; OVCAR-5 ovarian; SF-295 CNS.
Common to all, as to assay: NCI tumour cell line growth inhibition, 48 h

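The compound was tested at five concentrations on cells cultured in 96-well plates, with a 48-hour exposure period. TGI marks complete inhibition of growth.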

In the case of `CC(C)(C)OC(=O)NC(Cc1cnc[nH]1)C(=O)N1CCCC1C(N)=O` (centres undefined), the TGI in the assay on SK-MEL-5 melanoma, with MDA-MB-231 breast, with SNB-19 CNS, with T-47D breast, in the assay with NCI-H23 lung and with NCI-H522 lung was over 100 µM in each case. Further, the TGI in the assay on HS 578T breast, in the assay on M14 melanoma, in the assay on HCC-2998 colon, with A549 NSCLC, with SK-OV-3 ovarian and in the assay on UACC-62 melanoma was over 100 µM each time. Also, the TGI with K-562 leukemia, in the assay with DU-145 prostate, in the assay on MOLT-4 leukemia, in the assay on HOP-92 NSCLC, in the assay with OVCAR-5 ovarian and in the assay with SF-295 CNS was over 100 µM each time.
As to `O=C1c2ccccc2C(=O)N1CCCCCCNOCCCN1C(=O)c2ccccc2C1=O`, the TGI was 30.8 µM with SK-MEL-5 melanoma; over 100 µM with MDA-MB-231 breast; over 100 µM with SNB-19 CNS; 65 µM in the assay with T-47D breast; 97.1 µM in the assay on NCI-H23 lung; 79.3 µM in the assay with NCI-H522 lung. Moreover, the TGI in the assay with HS 578T breast was over 100 µM; with M14 melanoma, 61.4 µM; with HCC-2998 colon, over 100 µM; with A549 NSCLC, over 100 µM; in the assay on SK-OV-3 ovarian, over 100 µM; in the assay on UACC-62 melanoma, 50.3 µM. For the same compound, the TGI in the assay on K-562 leukemia was 98.2 µM; in the assay with DU-145 prostate, over 100 µM; with MOLT-4 leukemia it was 38.7 µM; in the assay with HOP-92 NSCLC it was over 100 µM; in the assay with OVCAR-5 ovarian, over 100 µM; with SF-295 CNS it was over 100 µM.
Consider `COC(=NCCC1=CCCCC1)OC`, for which the TGI with SK-MEL-5 melanoma, in the assay with MDA-MB-231 breast, with SNB-19 CNS, in the assay on T-47D breast, in the assay on NCI-H23 lung and with NCI-H522 lung was over 100 µM throughout. Moreover, the TGI in the assay on HS 578T breast was over 100 µM; in the assay with M14 melanoma, 47.3 µM; with HCC-2998 colon it was 39.9 µM; in the assay with A549 NSCLC, over 100 µM; with SK-OV-3 ovarian, over 100 µM; with UACC-62 melanoma, over 100 µM. Besides, the TGI in the assay with K-562 leukemia, in the assay with DU-145 prostate, in the assay with MOLT-4 leukemia, in the assay on HOP-92 NSCLC, in the assay with OVCAR-5 ovarian and with SF-295 CNS was over 100 µM in each case.
On to `Cc1ccc(CS(=O)(=O)C/N=c2\sc3ccccc3nc2/C=C(\O)c2ccc(Cl)cc2)cc1`, for which the TGI in the assay with SK-MEL-5 melanoma, with MDA-MB-231 breast, in the assay on SNB-19 CNS, with T-47D breast, with NCI-H23 lung and in the assay on NCI-H522 lung was over 10 µM in each case. Moreover, the TGI with HS 578T breast, in the assay on M14 melanoma, in the assay with HCC-2998 colon, in the assay with A549 NSCLC, in the assay on SK-OV-3 ovarian and with UACC-62 melanoma was over 10 µM in each case. Further, the TGI with K-562 leukemia, with DU-145 prostate, in the assay on MOLT-4 leukemia, in the assay with HOP-92 NSCLC, with OVCAR-5 ovarian and in the assay on SF-295 CNS was over 10 µM throughout.
With `CCCN(CCCCN1C(=O)c2ccccc2C1=O)CC1COc2ccccc2O1` (centres undefined), the TGI in the assay with SK-MEL-5 melanoma, in the assay on MDA-MB-231 breast, with SNB-19 CNS, in the assay on T-47D breast, in the assay on NCI-H23 lung and with NCI-H522 lung was over 100 µM throughout. Further, the TGI in the assay with HS 578T breast, in the assay with M14 melanoma, in the assay with HCC-2998 colon, in the assay on A549 NSCLC, with SK-OV-3 ovarian and with UACC-62 melanoma was over 100 µM each time. Further, the TGI in the assay on K-562 leukemia was over 100 µM; with DU-145 prostate, over 100 µM; in the assay with MOLT-4 leukemia, 66.5 µM; in the assay with HOP-92 NSCLC, over 100 µM; in the assay on OVCAR-5 ovarian, over 100 µM; in the assay with SF-295 CNS it was over 100 µM.
Regarding `c1ccc2c3c([nH]c2c1)C1c2[nH]c4ccccc4c2CCN1CC3`, the TGI in the assay with SK-MEL-5 melanoma turned out to be 28 µM; in the assay on MDA-MB-231 breast it was 36.6 µM; with T-47D breast, 37.1 µM; in the assay with NCI-H23 lung, 28.2 µM; in the assay on NCI-H522 lung, 28.6 µM; in the assay on HS 578T breast it was 44.7 µM. In addition, the TGI came out at 25.9 µM in the assay with HCC-2998 colon; 36.2 µM with A549 NSCLC; 27.1 µM in the assay on SK-OV-3 ovarian; 33.9 µM in the assay with UACC-62 melanoma; 26.1 µM in the assay with DU-145 prostate; 42.1 µM with MOLT-4 leukemia. Also, the TGI in the assay with HOP-92 NSCLC turned out to be 15.4 µM; in the assay with OVCAR-5 ovarian it was 33.7 µM; with SF-295 CNS, 34.3 µM.
With `Cc1cc2c(cc1C)[n+](=O)c(C(=O)N1CCN(c3ccc([N+](=O)[O-])cc3)CC1)c(C)n2[O-]`, the TGI is over 100 µM in the assay on SK-MEL-5 melanoma; 55.5 µM with MDA-MB-231 breast; over 100 µM in the assay with SNB-19 CNS; over 100 µM with T-47D breast; over 100 µM in the assay on NCI-H23 lung; over 100 µM with NCI-H522 lung. Also, the TGI in the assay on HS 578T breast is over 100 µM; in the assay with M14 melanoma, over 100 µM; in the assay on HCC-2998 colon, over 100 µM; in the assay on A549 NSCLC, over 100 µM; in the assay with SK-OV-3 ovarian, 51.2 µM; in the assay with UACC-62 melanoma it was over 100 µM. Also, the TGI was over 100 µM in the assay with K-562 leukemia; over 100 µM in the assay with DU-145 prostate; over 100 µM in the assay with MOLT-4 leukemia; over 100 µM in the assay with HOP-92 NSCLC; over 100 µM with OVCAR-5 ovarian; 31.6 µM in the assay with SF-295 CNS.
For `CCN(CC)Cc1nc(C2CCC([N+](=O)[O-])O2)no1` (centres undefined), the TGI in the assay with SK-MEL-5 melanoma is 30.2 µM; with MDA-MB-231 breast, over 100 µM; in the assay on SNB-19 CNS, 87.8 µM; in the assay with T-47D breast it was 98 µM; in the assay on NCI-H23 lung, 41.7 µM; in the assay on NCI-H522 lung it was 31 µM. Besides, the TGI in the assay on HS 578T breast is 82.4 µM; in the assay with M14 melanoma it was 28.3 µM; in the assay with HCC-2998 colon, 42.4 µM; in the assay with A549 NSCLC, over 100 µM; with SK-OV-3 ovarian it was over 100 µM; with UACC-62 melanoma, 30.7 µM. Besides, the TGI with K-562 leukemia was over 100 µM; with DU-145 prostate, over 100 µM; in the assay on MOLT-4 leukemia, over 100 µM; in the assay with HOP-92 NSCLC, over 100 µM; in the assay on OVCAR-5 ovarian it was 84.2 µM; in the assay with SF-295 CNS, over 100 µM.
Consider `Cc1ccc(S(=O)(=O)Oc2ccc(OS(=O)(=O)c3ccc(C)cc3)c3c2C(=O)c2ccccc2C3=O)cc1`, for which the TGI with SK-MEL-5 melanoma, with MDA-MB-231 breast, in the assay on SNB-19 CNS, in the assay with T-47D breast, in the assay on NCI-H23 lung and in the assay with NCI-H522 lung was over 100 µM each time. Also, the TGI in the assay with HS 578T breast, in the assay with M14 melanoma, in the assay with HCC-2998 colon, in the assay with A549 NSCLC, with SK-OV-3 ovarian and in the assay with UACC-62 melanoma was over 100 µM throughout. Besides, the TGI with K-562 leukemia, with DU-145 prostate, in the assay on MOLT-4 leukemia, in the assay with HOP-92 NSCLC and with OVCAR-5 ovarian was over 100 µM throughout.
In the case of `C=C1CC(Cn2cc(C)c(=O)[nH]c2=O)(c2ccc(-c3ccccc3)cc2)OC1=O` (centres undefined), the TGI was found to be 2.56 µM in the assay on SK-MEL-5 melanoma; 5.16 µM in the assay with MDA-MB-231 breast; 27.4 µM in the assay on SNB-19 CNS; 5.51 µM in the assay on T-47D breast; 3.99 µM in the assay with NCI-H23 lung; 3.59 µM in the assay on NCI-H522 lung. Besides, the TGI with HS 578T breast is over 21.2 µM; in the assay on HCC-2998 colon, 5.23 µM; in the assay with A549 NSCLC it was 23 µM; in the assay on SK-OV-3 ovarian it was 17.7 µM; in the assay on UACC-62 melanoma it was 3.77 µM; in the assay on K-562 leukemia, 2.3 µM. The TGI with DU-145 prostate was determined as 6.42 µM; in the assay on MOLT-4 leukemia it was 2.8 µM; in the assay with HOP-92 NSCLC, 3.75 µM; in the assay on OVCAR-5 ovarian, 23.3 µM; in the assay on SF-295 CNS, 14.2 µM.
As for `Cc1c[nH]c(C(=O)O)c1-c1ccc2c(-c3ccccc3)nc3ccccc3n12`, the TGI in the assay on SK-MEL-5 melanoma was over 100 µM; in the assay with MDA-MB-231 breast, 95 µM; in the assay on T-47D breast it was over 100 µM; in the assay with NCI-H23 lung, over 100 µM; in the assay on NCI-H522 lung, 60.6 µM; in the assay with HS 578T breast, 67.3 µM. For the same compound, the TGI in the assay with M14 melanoma was over 100 µM; in the assay with HCC-2998 colon it was 56.9 µM; in the assay on A549 NSCLC it was over 100 µM; in the assay with SK-OV-3 ovarian it was over 100 µM; in the assay with UACC-62 melanoma, 42.5 µM; with K-562 leukemia it was over 100 µM. Further, the TGI with DU-145 prostate was over 100 µM; with MOLT-4 leukemia, 94.8 µM; with HOP-92 NSCLC, over 100 µM; in the assay with OVCAR-5 ovarian, over 100 µM; in the assay with SF-295 CNS, 71.1 µM.
With `Cc1ccc2c(c1)[nH]c(=S)n2C=C1C(=O)CC(C)(C)CC1=O`, the TGI with SK-MEL-5 melanoma, in the assay on MDA-MB-231 breast, in the assay on SNB-19 CNS, in the assay with T-47D breast, in the assay with NCI-H23 lung and in the assay on NCI-H522 lung was over 100 µM each time. Moreover, the TGI with HS 578T breast, in the assay with M14 melanoma, with HCC-2998 colon, in the assay with A549 NSCLC, in the assay on SK-OV-3 ovarian and in the assay on UACC-62 melanoma was over 100 µM throughout. Moreover, the TGI in the assay on DU-145 prostate, with MOLT-4 leukemia, with HOP-92 NSCLC, in the assay on OVCAR-5 ovarian and in the assay on SF-295 CNS was over 100 µM throughout.
